The text below walks through data of patent US20230295115A1, “SUBSTITUTED ISOQUINOLINYLMETHYL AMIDES, ANALOGUES THEREOF, AND METHODS USING SAME” (priority 2020, published 2023).

Read-outs that look alike come from different tables or passages of the source.

The subject of the test is HBV rcDNA. Put plainly: HepDE19 assay with bDNA quantitation of HBV rcDNA. In kind it is cell-based, hepatitis B virus (HBV). As to the method: HepDE19 assay with bDNA quantitation of HBV rcDNA:
HepDE19 (50,000 cells/well) were plated in 96-well collagen-coated tissue-culture treated microtiter plates in DMEM/F12 medium supplemented with 10% fetal bovine serum, 1% penicillin-streptomycin and 1 μg/mL tetracycline and incubated in a humidified incubator at 37° C. and 5% CO2 overnight. Next day, the cells were switched to fresh medium without tetracycline and incubated for 4 hours at 37° C. and 5% CO2. […] The final DMSO concentration in the assay was 0.5%. The plates were incubated for 7 days in a humidified incubator at 37° C. and 5% CO2. Following a 7 day-incubation, the level of rcDNA present in the inhibitor-treated wells was measured using a Quantigene 2.0 bDNA assay kit (Affymetrix, Santa Clara, CA) with HBV specific custom probe set and manufacturers instructions. Concurrently, the effect of compounds on cell viability was assessed using replicate plates, plated at a density of 5,000 cells/well and incubated for 4 days, to determine the ATP content as a measure of cell viability using the cell-titer glo reagent (CTG; Promega Corporation, Madison, WI) as per manufacturer's instructions.

Setting [1] is: HepDE19 cells, 7 day incubation, rcDNA measured by Quantigene 2.0 bDNA assay, top concentration 25 μM; read-out: DE-19bDNA EC50.
The mark [2] stands for this setting: read-out: DE-19bDNA EC50; HepDE19 cells, 7 day incubation, rcDNA measured by Quantigene 2.0 bDNA assay, top concentration 25 μM.

Broadly, the EC50 is the concentration giving half of the maximal effect.

On to `CC(c1c[nH]c(=O)c2cc(F)c(F)cc12)N(C)C(=O)c1cc2cc(F)c(F)cc2[nH]1` (single isomer, unassigned) [Compound 15, N-(1-(6,7-Difluoro-1-oxo-1,2-dihydroisoquinolin-4-yl)ethyl)-5,6-difluoro-N-methyl-1H-indole-2-carboxamide], for which, under setting [1], the EC50 worked out at 1600 nM.
The same measure, in the same setting: with `CC(c1c[nH]c(=O)c2cc(F)c(F)cc12)N(C)C(=O)c1cc2cc(F)c(F)cc2[nH]1` (single isomer, unassigned) [Compound 16, N-(1-(6,7-Difluoro-1-oxo-1,2-dihydroisoquinolin-4-yl)ethyl)-5,6-difluoro-N-methyl-1H-indole-2-carboxamide] the figure was 10 nM.
Same read-out and setting: for `CC(c1c[nH]c(=O)c2cc(F)c(F)cc12)N(C)C(=O)c1cc2c(F)cc(F)cc2[nH]1` (single isomer, unassigned) [Compound 17, N-(1-(6,7-Difluoro-1-oxo-1,2-dihydroisoquinolin-4-yl)ethyl)-4,6-difluoro-N-methyl-1H-indole-2-carboxamide] the value was 2500 nM; for `CC(c1c[nH]c(=O)c2cc(F)c(F)cc12)N(C)C(=O)c1cc2c(F)cc(F)cc2[nH]1` (single isomer, unassigned) [Compound 18, N-(1-(6,7-Difluoro-1-oxo-1,2-dihydroisoquinolin-4-yl)ethyl)-4,6-difluoro-N-methyl-1H-indole-2-carboxamide], 20 nM.
For the molecule `CC(c1c[nH]c(=O)c2cc(F)c(F)cc12)N(C)C(=O)[C@@H]1Cc2ccccc2CN1` (single isomer, unassigned) [Compound 19], the EC50 under setting [1] is 820 nM.
On the same count and under the same terms, with `CC(c1c[nH]c(=O)c2cc(F)c(F)cc12)N(C)C(=O)[C@@H]1Cc2ccccc2CN1` (single isomer, unassigned) [Compound 20] the figure was 9200 nM; with `CC(c1c[nH]c(=O)c2cc(F)c(F)cc12)N(C)C(=O)[C@H]1Cc2ccccc2N1` (single isomer, unassigned) [Compound 21], 300 nM; with `CC(c1c[nH]c(=O)c2cc(F)c(F)cc12)N(C)C(=O)[C@H]1Cc2ccccc2N1` (single isomer, unassigned) [Compound 22], 3700 nM.
In the case of `CC(c1c[nH]c(=O)c2cc(F)c(F)cc12)N(C)C(=O)c1nc2ccccc2[nH]1` (single isomer, unassigned) [Compound 23, N-(1-(6,7-Difluoro-1-oxo-1,2-dihydroisoquinolin-4-yl)ethyl)-N-methyl-1H-benzo[d]imidazole-2-carboxamide], the EC50 under setting [1] is at least 25000 nM.
The same measure, in the same setting: with `CC(c1c[nH]c(=O)c2cc(F)c(F)cc12)N(C)C(=O)c1nc2ccccc2[nH]1` (single isomer, unassigned) [Compound 24, N-(1-(6,7-Difluoro-1-oxo-1,2-dihydroisoquinolin-4-yl)ethyl)-N-methyl-1H-benzo[d]imidazole-2-carboxamide] the figure was 760 nM; with `CC(c1c[nH]c(=O)c2cc(F)c(F)cc12)N(C)C(=O)c1cc2ccccc2o1` (single isomer, unassigned) [Compound 25, N-(1-(6,7-Difluoro-1-oxo-1,2-dihydroisoquinolin-4-yl)ethyl)-N-methylbenzofuran-2-carboxamide], 17000 nM.
On to `CC(c1c[nH]c(=O)c2cc(F)c(F)cc12)N(C)C(=O)c1cc2ccccc2o1` (single isomer, unassigned) [Compound 26, N-(1-(6,7-Difluoro-1-oxo-1,2-dihydroisoquinolin-4-yl)ethyl)-N-methylbenzofuran-2-carboxamide], for which the EC50 under setting [1] was 350 nM.
On the same count and under the same terms, for `CC(c1c[nH]c(=O)c2cc(F)c(F)cc12)N(CCCO)C(=O)c1cc2ccccc2[nH]1` (single isomer, unassigned) [Compound 27, N-(1-(6,7-Difluoro-1-oxo-1,2-dihydroisoquinolin-4-yl)ethyl)-N-(3-hydroxypropyl)-1H-indole-2-carboxamide] the value was 2900 nM; for `CC(c1c[nH]c(=O)c2cc(F)c(F)cc12)N(CCCO)C(=O)c1cc2ccccc2[nH]1` (single isomer, unassigned) [Compound 28, N-(1-(6,7-Difluoro-1-oxo-1,2-dihydroisoquinolin-4-yl)ethyl)-N-(3-hydroxypropyl)-1H-indole-2-carboxamide], 40 nM.
Same read-out and setting: for `CC(c1c[nH]c(=O)c2cc(F)c(F)cc12)N(C)C(=O)[C@@H]1Cc2ccccc2N1` (single isomer, unassigned) [Compound 30] the value was 20 nM.
Still for that read-out and setting: with `CC(c1c[nH]c(=O)c2cc(F)c(F)cc12)N(C)C(=O)[C@@H]1Cc2ccccc2N1` (single isomer, unassigned) [Compound 31] the figure was 20000 nM; with `CC(c1c[nH]c(=O)c2cc(F)c(F)cc12)N(C)C(=O)[C@H]1Cc2ccccc2CN1` (single isomer, unassigned) [Compound 32], at least 25000 nM.
Turning to `CC(c1c[nH]c(=O)c2cc(F)c(F)cc12)N(C)C(=O)[C@H]1Cc2ccccc2CN1` (single isomer, unassigned) [Compound 33], the EC50 under setting [1] was found to be 6600 nM.
On the same count and under the same terms, with `CC(c1c[nH]c(=O)c2cc(F)c(F)cc12)N(C)C(=O)c1cc2ccccc2n1C` (single isomer, unassigned) [Compound 43, N-(1-(6,7-Difluoro-1-oxo-1,2-dihydroisoquinolin-4-yl)ethyl)-N,1-dimethyl-1H-indole-2-carboxamide] the figure was 4300 nM; with `CC(c1c[nH]c(=O)c2cc(F)c(F)cc12)N(C)C(=O)c1cc2ccccc2n1C` (single isomer, unassigned) [Compound 44, N-(1-(6,7-Difluoro-1-oxo-1,2-dihydroisoquinolin-4-yl)ethyl)-N,1-dimethyl-1H-indole-2-carboxamide], 300 nM.
Still for that read-out and setting: for `CC(c1c[nH]c(=O)c2cc(F)c(F)cc12)N(C)C(=O)c1cn2ccccc2n1` (single isomer, unassigned) [Compound 45, N-(1-(6,7-Difluoro-1-oxo-1,2-dihydroisoquinolin-4-yl)ethyl)-N-methylimidazo[1,2-a]pyridine-2-carboxamide] the value was 2500 nM; for `CC(c1c[nH]c(=O)c2cc(F)c(F)cc12)N(C)C(=O)c1cn2ccccc2n1` (single isomer, unassigned) [Compound 46, N-(1-(6,7-Difluoro-1-oxo-1,2-dihydroisoquinolin-4-yl)ethyl)-N-methylimidazo[1,2-a]pyridine-2-carboxamide], 21000 nM; for `CC(c1c[nH]c(=O)c2cc(F)c(F)cc12)N(C)C(=O)c1cc2c([nH]1)CCC2` (single isomer, unassigned) [Compound 47, N-(1-(6,7-Difluoro-1-oxo-1,2-dihydroisoquinolin-4-yl)ethyl)-N-methyl-1,4,5,6-tetrahydro cyclopenta[b]pyrrole-2-carboxamide], at least 25000 nM.
The same measure, in the same setting: with `CC(c1c[nH]c(=O)c2cc(F)c(F)cc12)N(C)C(=O)c1cc2c([nH]1)CCC2` (single isomer, unassigned) [Compound 48, N-(1-(6,7-Difluoro-1-oxo-1,2-dihydroisoquinolin-4-yl)ethyl)-N-methyl-1,4,5,6-tetrahydro cyclopenta[b]pyrrole-2-carboxamide] the figure was 150 nM.
Turning to `CC(c1c[nH]c(=O)c2cc(F)c(F)cc12)N(C)C(=O)c1nc2cc(F)c(F)cc2[nH]1` (single isomer, unassigned) [Compound 49, N-(1-(6,7-Difluoro-1-oxo-1,2-dihydroisoquinolin-4-yl)ethyl)-5,6-difluoro-N-methyl-1H-benzo[d]imidazole-2-carboxamide], the 50% effective concentration (EC50) under setting [1] came to 3100 nM.
On the same count and under the same terms, for `CC(c1c[nH]c(=O)c2cc(F)c(F)cc12)N(C)C(=O)c1nc2cc(F)c(F)cc2[nH]1` (single isomer, unassigned) [Compound 50, N-(1-(6,7-Difluoro-1-oxo-1,2-dihydroisoquinolin-4-yl)ethyl)-5,6-difluoro-N-methyl-1H-benzo[d]imidazole-2-carboxamide] the value was 290 nM.
Regarding `CC(c1c[nH]c(=O)c2cc(F)c(F)cc12)N(C)C(=O)c1cc2cccnc2[nH]1` (single isomer, unassigned) [Compound 51, N-(1-(6,7-Difluoro-1-oxo-1,2-dihydroisoquinolin-4-yl)ethyl)-N-methyl-1H-pyrrolo[2,3-b]pyridine-2-carboxamide], the EC50 under setting [2] is 790 nM.
Still for that read-out and setting: with `CC(c1c[nH]c(=O)c2cc(F)c(F)cc12)N(C)C(=O)c1cc2cccnc2[nH]1` (single isomer, unassigned) [Compound 52, N-(1-(6,7-Difluoro-1-oxo-1,2-dihydroisoquinolin-4-yl)ethyl)-N-methyl-1H-pyrrolo[2,3-b]pyridine-2-carboxamide] the figure was at least 25000 nM.
Consider `CC(c1c[nH]c(=O)c2cc(F)c(F)cc12)N(C)C(=O)c1c[nH]c2ccccc12` (single isomer, unassigned) [Compound 53, N-(1-(6,7-Difluoro-1-oxo-1,2-dihydroisoquinolin-4-yl)ethyl)-N-methyl-1H-indole-3-carboxamide], for which the EC50 under setting [1] is at least 25000 nM.
As to `CC(c1c[nH]c(=O)c2cc(F)c(F)cc12)N(C)C(=O)c1c[nH]c2ccccc12` (single isomer, unassigned) [Compound 54, N-(1-(6,7-Difluoro-1-oxo-1,2-dihydroisoquinolin-4-yl)ethyl)-N-methyl-1H-indole-3-carboxamide], the EC50 under setting [1] turned out to be 5100 nM.
